Results as given in US20200179428A1, “CYCLIC PHOSPHATE SUBSTITUTED NUCLEOSIDE DERIVATIVES AND METHODS OF USE THEREOF FOR THE TREATMENT OF VIRAL DISEASES” (priority 2016, published 2020).
Read-outs that look alike come from different tables or passages of the source.

Columns and labels:
[1] = Cytotoxicity MTS assay (CellTiter 96 Aqueous One Solution) in replicon cells; format: cell-based; settings: HCV replicon cells (1b-Con1); EDU; read-out: CC50 (EDU) Range
Protocol: (§1) To measure cell-based anti-HCV activity of the compounds of the present invention, replicon cells (1b-Con1) are seeded at 5000 cells/well in 96-well plates one day prior to treatment with a compound of the invention. Various concentrations of a test compound of the invention in DMSO are then added to the replicon cells, with the final concentration of DMSO at 0.5% and fetal bovine serum at 10% in the assay media. Cells are harvested three days post-dosing, and the replicon RNA level is determined using real-time RT-PCR (Taqman assay) with GAPDH RNA as endogenous control. EC50 values are calculated from experiments with 10 serial twofold dilutions of the inhibitor in triplicate. To measure cytotoxicity in replicon cells of an inhibitor, an MTS assay is performed according to the manufacturer's protocol for CellTiter 96 Aqueous One Solution Cell Proliferation Assay (Promega, Cat # G3580) three days post dosing on cells treated identically as in replicon activity assays. […] Cytotoxicity in other types of cells may be measured using the same MTS protocol.

replicon cells (1b-Con1) = experiment: Replicon activity assay (replicon RNA level by real-time RT-PCR, Taqman); format: cell-based; settings: HCV replicon genotype 1b, read-out: EC50 (1b) Range
Protocol: as §1

Compound | CC50 at 3 days [1] | EC50 (replicon cells (1b-Con1); Hepatitis C virus) | EC50 (replicon cells (1b-Con1))
C#C[C@@]1(O)[C@@H]2OP(=O)(OCCC(C)C(=O)OC3CCCC3)OC[C@H]2O[C@H]1n1ccc(=O)[nH]c1=O (single isomer, unassigned) [Compound 8A] | > 50 µM | 0.25 to 1 µM | –
C#C[C@@]1(OC(=O)CCC)[C@@H]2O[P@@](=O)(OCC[C@H](C)C(=O)OC(C)C)OC[C@H]2O[C@H]1n1ccc(=O)[nH]c1=O [Compound 85A2] | > 50 µM | ≤ 0.25 µM | –
CCC(CCO[P@@]1(=O)OC[C@H]2O[C@@H](n3ccc(=O)[nH]c3=O)[C@](C)(N)[C@@H]2O1)C(=O)OC(C)C (stereo partly shown) [Compound 23A] | > 50 µM | > 10 µM | –
C#C[C@]1(C)[C@@H]2O[P@](=O)(OCC[C@H](NC(=O)OC)C(=O)OC(C)C)OC[C@H]2O[C@H]1n1ccc(=O)[nH]c1=O [Compound 43B] | > 50 µM | > 10 µM | –
COC(=O)N[C@@H](CCO[P@]1(=O)OC[C@H]2O[C@@H](n3ccc(=O)[nH]c3=O)[C@](C)(N)[C@@H]2O1)C(=O)OC(C)C [Compound 42B] | > 50 µM | > 10 µM | –
CO[C@H](CO[P@@]1(=O)OC[C@H]2O[C@@H](n3ccc(=O)[nH]c3=O)[C@](C)(N)[C@@H]2O1)CC(=O)OC(C)C [Compound 61A] | > 50 µM | > 10 µM | –
CC(C)OC(=O)C(C)CCOP1(=O)OC[C@H]2O[C@@H](n3cnc4c(N)ncnc43)[C@](C)(Cl)[C@@H]2O1 (single isomer, unassigned) [Compound 35A1] | > 50 µM | ≤ 0.25 µM | –
C#C[C@]1(C)[C@@H]2OP(=O)(OCC(C)CC(=O)OC(C)C)OC[C@H]2O[C@H]1n1ccc(=O)[nH]c1=O (single isomer, unassigned) [Compound 6A] | > 50 µM | – | 1 to 10 µM
CC(C)OC(=O)CC(C)(C)CO[P@@]1(=O)OC[C@H]2O[C@@H](n3ccc(=O)[nH]c3=O)[C@](C)(N)[C@@H]2O1 [Compound 17A] | > 50 µM | > 10 µM | –
C#C[C@]1(C)[C@@H]2O[P@](=O)(OC[C@H](CC(=O)OC(C)C)OC)OC[C@H]2O[C@H]1n1ccc(=O)[nH]c1=O [Compound 60B] | > 50 µM | > 10 µM | –
C#C[C@]1(C)[C@@H]2O[P@@](=O)(OCC(C)(C)CC(=O)OC(C)C)OC[C@H]2O[C@H]1n1ccc(=O)[nH]c1=O [Compound 18A] | > 50 µM | > 10 µM | –
COC(=O)N[C@H](CO[P@]1(=O)OC[C@H]2O[C@@H](n3ccc(=O)[nH]c3=O)[C@](C)(C#N)[C@@H]2O1)C(=O)OC(C)C [Compound 41B] | > 50 µM | > 10 µM | –
C#C[C@]1(C)[C@@H]2O[P@](=O)(OCCC(C)C(=O)OC3CCCCC3)OC[C@H]2O[C@H]1n1ccc(=O)[nH]c1=O (stereo partly shown) [Compound 77B] | > 50 µM | ≤ 0.25 µM | –
CC(C)OC(=O)C(CCO[P@]1(=O)OC[C@H]2O[C@@H](n3ccc(=O)[nH]c3=O)[C@](C)(N)[C@@H]2O1)C(C)C (stereo partly shown) [Compound 24B] | > 50 µM | > 10 µM | –
C#C[C@]1(C)[C@@H]2O[P@@](=O)(OCC[C@H](NC(=O)OC)C(=O)OC(C)C)OC[C@H]2O[C@H]1n1ccc(=O)[nH]c1=O [Compound 43A] | > 50 µM | > 10 µM | –
C#C[C@@]1(OC(=O)CCC)[C@@H]2O[P@@](=O)(OCC[C@@H](C)C(=O)OC(C)C)OC[C@H]2O[C@H]1n1ccc(=O)[nH]c1=O [Compound 83A1] | > 50 µM | ≤ 0.25 µM | –
CC(C)OC(=O)C(C)CCOP1(=O)OC[C@H]2O[C@@H](n3ccc(=O)[nH]c3=O)[C@](C)(Cl)[C@@H]2O1 (stereo partly shown) [Compound 39A] | > 50 µM | ≤ 0.25 µM | –
C#C[C@]1(C)[C@@H]2O[P@](=O)(OC[C@H](NC(=O)OC)C(=O)OC(C)C)OC[C@H]2O[C@H]1n1ccc(=O)[nH]c1=O [Compound 40B] | > 50 µM | > 10 µM | –
C#C[C@]1(C)[C@@H]2OP(=O)(OCC(C)CC(=O)OC(C)C)OC[C@H]2O[C@H]1n1ccc(=O)[nH]c1=O (stereo partly shown) [Compound 6B] | > 50 µM | 1 to 10 µM | –
C#C[C@]1(C)[C@@H]2O[P@@](=O)(OCCC(CC)C(=O)OC3CCCC3)OC[C@H]2O[C@H]1n1ccc(=O)[nH]c1=O (stereo partly shown) [Compound 30A] | > 50 µM | > 10 µM | –
CC(=O)O[C@H](C(=O)OC(C)C)[C@@H](COP1(=O)OC[C@H]2O[C@@H](n3ccc(=O)[nH]c3=O)[C@](C)(N)[C@@H]2O1)OC(C)=O (stereo partly shown) [Compound 53B] | > 50 µM | > 10 µM | –
CC(C)OC(=O)C(CCO[P@@]1(=O)OC[C@H]2O[C@@H](n3ccc(=O)[nH]c3=O)[C@](C)(N)[C@@H]2O1)c1ccccc1 (stereo partly shown) [Compound 33A] | > 50 µM | > 10 µM | –

Compound | CC50 at 3 days [1] | EC50 (replicon cells (1b-Con1); Hepatitis C virus) | EC50 (replicon cells (1b-Con1))
CC(=O)O[C@@H](CO[P@]1(=O)OC[C@H]2O[C@@H](n3ccc(=O)[nH]c3=O)[C@](C)(N)[C@@H]2O1)[C@@H](OC(C)=O)C(=O)OC(C)C [Compound 54B] | > 50 µM | > 10 µM | –
CO[C@H](CCO[P@]1(=O)OC[C@H]2O[C@@H](n3ccc(=O)[nH]c3=O)[C@](C)(N)[C@@H]2O1)C(=O)OC(C)C [Compound 45B] | > 50 µM | > 10 µM | –
COC(=O)N[C@H](CO[P@@]1(=O)OC[C@H]2O[C@@H](n3ccc(=O)[nH]c3=O)[C@](C)(C#N)[C@@H]2O1)C(=O)OC(C)C [Compound 41A] | > 50 µM | > 10 µM | –
C#C[C@]1(C)[C@@H]2O[P@@](=O)(OC[C@H](F)CC(=O)OC(C)C)OC[C@H]2O[C@H]1n1ccc(=O)[nH]c1=O [Compound 66A] | > 50 µM | > 10 µM | –
CC(C)OC(=O)[C@H](C)CCOP1(=O)OC[C@H]2O[C@@H](n3cnc4c(N)ncnc43)[C@](C)(F)[C@@H]2O1 (stereo partly shown) [Compound 88A] | > 50 µM | ≤ 0.25 µM | –
C[C@@]1(N)[C@@H]2O[P@](=O)(OCCC3(C(=O)OC4CCCC4)CC3)OC[C@H]2O[C@H]1n1ccc(=O)[nH]c1=O [Compound 26B] | > 50 µM | > 10 µM | –
CCOC(=O)C1(CCO[P@]2(=O)OC[C@H]3O[C@@H](n4ccc(=O)[nH]c4=O)[C@](C)(N)[C@@H]3O2)CC1 [Compound 28B] | > 50 µM | > 10 µM | –
C#C[C@]1(C)[C@@H]2O[P@](=O)(OCC[C@H](C)C(=O)OC(C)C)OC[C@H]2O[C@H]1n1cnc2c(N)ncnc21 [Compound 72B] | > 50 µM | 0.25 to 1 µM | –
CC(C)OC(=O)C(C)CCOP1(=O)OC[C@H]2O[C@@H](n3cnc4c(N)ncnc43)[C@](C)(Cl)[C@@H]2O1 (stereo partly shown) [Compound 35A] | > 50 µM | ≤ 0.25 µM | –
CC(C)OC(=O)[C@@H](C)CCOP1(=O)OC[C@H]2O[C@@H](n3ccc(=O)[nH]c3=O)[C@](C)(Cl)[C@@H]2O1 (single isomer, unassigned) [Compound 39A1] | > 50 µM | ≤ 0.25 µM | –
C#C[C@]1(C)[C@@H]2O[P@](=O)(OCC[C@H](OC(C)=O)C(=O)OC(C)C)OC[C@H]2O[C@H]1n1ccc(=O)[nH]c1=O [Compound 51B] | > 50 µM | ≤ 0.25 µM | –
CCCCCOC(=O)C(C)CCO[P@@]1(=O)OC[C@H]2O[C@@H](n3ccc(=O)[nH]c3=O)[C@](C)(N)[C@@H]2O1 (stereo partly shown) [Compound 79A] | > 50 µM | 1 to 10 µM | –
C#C[C@]1(C)[C@@H]2O[P@@](=O)(OC[C@H](NC(=O)OC)C(=O)OC(C)C)OC[C@H]2O[C@H]1n1ccc(=O)[nH]c1=O [Compound 40A] | > 50 µM | > 10 µM | –
CC(CCO[P@@]1(=O)OC[C@H]2O[C@@H](n3ccc(=O)[nH]c3=O)[C@](C)(N)[C@@H]2O1)C(=O)OC1CCCCC1 (stereo partly shown) [Compound 78A] | > 50 µM | > 10 µM | –
CC(CCO[P@]1(=O)OC[C@H]2O[C@@H](n3ccc(=O)[nH]c3=O)[C@](C)(N)[C@@H]2O1)CC(=O)OC(C)C (stereo partly shown) [Compound 21B] | > 50 µM | > 10 µM | –
C#C[C@]1(C)[C@@H]2O[P@](=O)(OCCC(CC)C(=O)OC(C)C)OC[C@H]2O[C@H]1n1ccc(=O)[nH]c1=O (stereo partly shown) [Compound 31B] | > 50 µM | > 10 µM | –
CC(C)OC(=O)C(C)CCOP1(=O)OC[C@H]2O[C@@H](n3ccc(=O)[nH]c3=O)[C@](C)(N)[C@@H]2O1 (single isomer, unassigned) [Compound 10A1] | > 50 µM | > 10 µM | –
CO[C@H](CO[P@@]1(=O)OC[C@H]2O[C@@H](n3ccc(=O)[nH]c3=O)[C@](C)(N)[C@@H]2O1)[C@@H](OC)C(=O)OC(C)C [Compound 48A] | > 50 µM | > 10 µM | –
C#C[C@@]1(O)[C@@H]2OP(=O)(OCC[C@@H](C)C(=O)OC(C)C)OC[C@H]2O[C@H]1n1ccc(=O)[nH]c1=O (single isomer, unassigned) [Compound 7A1] | > 50 µM | 0.25 to 1 µM | –
C#C[C@]1(C)[C@@H]2O[P@](=O)(OCCC(CO)C(=O)OC(C)C)OC[C@H]2O[C@H]1n1ccc(=O)[nH]c1=O (stereo partly shown) [Compound 44B] | > 50 µM | > 10 µM | –
CC(C)OC(=O)[C@@H](C)CCOP1(=O)OC[C@H]2O[C@@H](n3cnc4c(N)ncnc43)[C@](C)(Cl)[C@@H]2O1 (single isomer, unassigned) [Compound 35A2] | > 50 µM | ≤ 0.25 µM | –
CC(C)OC(=O)C1(CCO[P@@]2(=O)OC[C@H]3O[C@@H](n4ccc(=O)[nH]c4=O)[C@](C)(N)[C@@H]3O2)CC1 [Compound 27A] | > 50 µM | > 10 µM | –
